# According to BindingDB's records for doi:10.1021/jm9600611 (Cytel, 1996):
# Experiment: Compound was tested for the inhibition of E-selectin-mediated cellular adhesion
row,SMILES,IC50 [µM]
1,"CCO[C@@H]1O[C@@H](CO)[C@H](O)[C@H](O[C@@H]2O[C@@H](CO)[C@@H](O[C@@H]3O[C@@H](CO)[C@H](O)[C@H](O[C@]4(C(=O)O)C[C@@H](O)[C@@H](NC(C)=O)[C@H]([C@H](O)[C@H](O)CO)O4)[C@@H]3O)[C@H](O[C@@H]3O[C@@H](C)[C@@H](O)[C@H](O)[C@@H]3O)[C@@H]2NC(=O)c2ccccc2)[C@@H]1O [Ethyl(Sodium 5-actamido-3,5-dideoxy-alpha-D-glycero-D-galacto-nonulopyronosylonate)-(2,3)-O-(beta-D-galactopyranosyl)-(1,4)-O(alpha-L-fucopyranosyl)-(1,3)-O-[2-(benzamido)-2-deoxy-beta-D-glucopyranosyl]-(1,3)-O-beta-D-galactopyranoside]",300
2,"CCO[C@@H]1O[C@@H](CO)[C@H](O)[C@H](O[C@@H]2O[C@@H](CO)[C@@H](O[C@@H]3O[C@@H](CO)[C@H](O)[C@H](O[C@]4(C(=O)O)C[C@@H](O)[C@@H](NC(C)=O)[C@H]([C@H](O)[C@H](O)CO)O4)[C@@H]3O)[C@H](O[C@@H]3O[C@@H](C)[C@@H](O)[C@H](O)[C@@H]3O)[C@@H]2NC(=O)C2CCCCC2)[C@@H]1O [Ethyl(Sodium 5-actamido-3,5-dideoxy-alpha-D-glycero-D-galacto-nonulopyronosylonate)-(2,3)-O-(beta-D-galactopyranosyl)-(1,4)-O(alpha-L-fucopyranosyl)-(1,3)-O-[2-(Cyclohexanecarboxylic acid amido)-2-deoxy-beta-D-glucopyranosyl]-(1,3)-O-beta-D-galactopyranoside]",2900
3,"CCO[C@@H]1O[C@@H](CO)[C@H](O)[C@H](O[C@@H]2O[C@@H](CO)[C@@H](O[C@@H]3O[C@@H](CO)[C@H](O)[C@H](O[C@]4(C(=O)O)C[C@@H](O)[C@@H](NC(C)=O)[C@H]([C@H](O)[C@H](O)CO)O4)[C@@H]3O)[C@H](O[C@@H]3O[C@@H](C)[C@@H](O)[C@H](O)[C@@H]3O)[C@@H]2NC(=O)c2ccc3ccccc3c2)[C@@H]1O [Ethyl(Sodium 5-actamido-3,5-dideoxy-alpha-D-glycero-D-galacto-nonulopyronosylonate)-(2,3)-O-(beta-D-galactopyranosyl)-(1,4)-O(alpha-L-fucopyranosyl)-(1,3)-O-[2-(2-naphthamido)-2-deoxy-beta-D-glucopyranosyl]-(1,3)-O-beta-D-galactopyranoside]",80
4,"CCO[C@@H]1O[C@@H](CO)[C@H](O)[C@H](O[C@@H]2O[C@@H](CO)[C@@H](O[C@@H]3O[C@@H](CO)[C@H](O)[C@H](O[C@]4(C(=O)O)C[C@@H](O)[C@@H](NC(C)=O)[C@H]([C@H](O)[C@H](O)CO)O4)[C@@H]3O)[C@H](O[C@@H]3O[C@@H](C)[C@@H](O)[C@H](O)[C@@H]3O)[C@@H]2NC(C)=O)[C@@H]1O [Ethyl(Sodium 5-actamido-3,5-dideoxy-alpha-D-glycero-D-galacto-nonulopyronosylonate)-(2,3)-O-(beta-D-galactopyranosyl)-(1,4)-O(alpha-L-fucopyranosyl)-(1,3)-O-[2-(N-acetylamido)-2-deoxy-beta-D-glucopyranosyl]-(1,3)-O-beta-D-galactopyranoside(N-acetyl SLex)]",1000
